Patent publication US5660613A, “Anaerobic/aerobic decontamination of DDT contaminated soil by repeated anaerobic/aerobic treatments” (Zeneca Corp., priority 1995, dated 1997)

How the values were obtained:
[1] = Fate of radiolabelled DDT in the soil system, aerobic / anaerobic / anaerobic then aerobic incubation (Table 1); conditions: for % DDD (% remaining after tests) / % DDE (% remaining after tests) / % Other (% remaining after tests): from radiolabelled DDT; for % DDT (% remaining after tests): Triton X-100 500 ppm, 80640 min
Text: This example compares the repeated anaerobic/aerobic sequence treatment method of the present invention with single anaerobic treatment and single aerobic treatment in the degradation of DDT in a soil system.
The soil in this example contains populations of >10^5 cfu/g viable aerobic and anaerobic microbes capable of rendering DDT-type contaminants harmless and being viable under both anaerobic and aerobic conditions. This soil contains DDT (200 ppm), DDD (22 ppm) and DDE (18 ppm).
Six 20 g samples of soil are each mixed with 25 ml of water containing 500 ppm each of cysteine and sulphite reducing agents and 500 ppm of "Triton"-X-100. To these slurries are added 1 ppm of radiolabelled 4,4'-DDT-ring UL C^14 in hexane. Two 20 g samples are incubated anaerobically (in 50-ml polypropylene tubes at 35° C., stationary);two 20 g samples are incubated aerobically (in rotating jars with foam plugs at 35° C., 150 rpm); and two 20 g samples are incubated on a 2 week anaerobic/2 week aerobic cycle for a total of 8 weeks.
Redox potential is monitored. After the aerobic phase redox is greater than +100 mV and after the anaerobic incubation redox potential is less than -200 mV.
The incubation samples are extracted, and the fate of the radiolabelled DDT is determined by thin layer chromatography and autoradiography/densitometry. The experiments are repeated to obtain average results.

[2] = Fate of radiolabelled DDT in the soil system with different surfactants, anaerobic/aerobic sequence (Table 2); conditions: anaerobic/aerobic cycles, 35° C.; for % DDD (% remaining after tests) / % DDE (% remaining after tests) / % Other (% remaining after tests): from radiolabelled DDT; for % DDT (% remaining after tests): 80640 min
Description: The soil to be remediated contains populations of >10^5 cfu/g of viable aerobic and anaerobic microbes capable of rendering DDT-type contaminants harmless and being viable under both anaerobic and aerobic conditions. This soil contains DDT (200 ppm), DDD (22 ppm) and DDE (18 ppm). Six twenty gram samples of soil are added to 50-ml polypropylene tubes with 25 ml of water containing 500 ppm each of cysteine and sulphite reducing agents. This creates a supersaturated anaerobic degradation zone immersed in water. To each slurry sample is added 500 ppm of different surfactants and 1 ppm of radiolabelled 4,4'-DDT ring UL C^14 in hexane.
The tubes are capped and incubated stationary for 2 weeks at 35° C. After 2 weeks the tubes are opened and the contents are each transferred to a foam-capped jar and aerated by rotary incubation (150 rpm), for a further 2 weeks at 35° C. The anaerobic/aerobic cycle is repeated 2 times.
The samples are then extracted and the fate of the radiolabelled DDT is determined by thin layer chromatography and autoradiography/densitometry. The experiments are replicated to obtain average results.

[3] = Pilot scale anaerobic/aerobic cycling of DDT-contaminated soil (immersion), solvent extraction and GC ECD analysis; conditions: after 16 weeks; one month immersed/drained cycles; 22° C. to 28° C.; initial DDT 728, DDD 87, DDE 50 ppm; 161280 min
Description: Three-quarters of a ton of soil that contains DDT (728 ppm), DDD (87 ppm) and DDE (50 ppm) is placed in an enclosed degradation zone box 8 foot by 8 foot by 18 inches. It is alternately immersed in water and drained on one month cycles. Sodium acetate nutrient (500 ppm) is added as required to maintain the COD above 300 mg/L, and a mixture of "Triton" X-100 and "DAWN" nonionic surfactants is added as required to maintain the surface tension in the leachate below 70 dynes/cm. The material is cultivated by hand weekly to aerate the degradation zone and render it aerobic during the drained phase. During the treatment, the temperature ranges from 22° C. to 28° C. The redox potential level in the treatment zone stays below negative 200 mV while immersed in water and above positive 100 mV while drained. While drained the water content of the soil is in the range of 40-100% WHC.
After 16 weeks 72% of the DDT, 31% of the DDD and 54% of the DDE is degraded, as measured by solvent extraction and GC ECD analysis.

[4] = Large scale anaerobic/aerobic repeated sequence, biopile technique; conditions: after 16 weeks of cycling, weekly air on/off, 22° C. to 28° C., initial DDT 728, DDD 87, DDE 50 ppm, 161280 min
Text: Eight tons of soil containing DDT (728 ppm), DDD (87 ppm) and DDE (50 ppm) is placed in an enclosed degradation zone box 8 foot by 8 foot by 8 feet. The soil is amended with 5% straw nutrient. Water is continuously dripped onto the surface of the soil to supersaturate, and the leachate is collected at the bottom and recycled at a rate of 20 to 100 L/tonne/day. Oxygenation is accomplished by passing air through a mechanical distribution system in the soil at the rate of 44 L/tonne/day, weekly alternating the air on and off. The temperatures of the soil during treatment range from 22° C. to 28° C. The redox potential level in the treatment zone stays below negative 200 mV when aeration is off and above positive 100 mV when aeration is on.
Sodium acetate nutrient is added as required to boost the COD to above 300 mg/L, and maintain population counts above 10^5 cfu/g, of anaerobic and aerobic bacteria; and surfactants (a mixture of "Triton" X-100 and "DAWN") is added as required to maintain surface tension below 70 dynes/cm measured in the leachate, which is recycled.

[5] = Aerobic, 35° C., 150 rpm, 8 weeks
[6] = Anaerobic then Aerobic, 2 week/2 week cycle, total 8 weeks
[7] = Anaerobic, 35° C., stationary, 8 weeks

Clc1ccc(C(c2ccc(Cl)cc2)C(Cl)Cl)cc1 [DDD, 1,1,dichloro-2,2-bis(p-chlorophenyl)ethane]
% DDD (% remaining after tests) [1, 5]: 17%
% DDD (% remaining after tests) [1, 6]: 60%
% DDD (% remaining after tests) [1, 7]: 30%
% DDD (% remaining after tests) ([2]; "Dawn" 500 ppm): 75%
% DDD (% remaining after tests) ([2]; "Triton" X-100 500 ppm): 40%
% DDD (% remaining after tests) ([2]; No Surfactant): 15%
% degraded [3]: 31%
% degraded [4]: 55%

ClC(Cl)=C(c1ccc(Cl)cc1)c1ccc(Cl)cc1 [DDE, 2,2-bis(p-chlorophenyl)1,1-dichloroethylene]
% DDE (% remaining after tests) [1, 5]: 2%
% DDE (% remaining after tests) [1, 6]: trace
% DDE (% remaining after tests) [1, 7]: 0%
% DDE (% remaining after tests) ([2]; "Dawn" 500 ppm): trace
% DDE (% remaining after tests) ([2]; "Triton" X-100 500 ppm): trace
% DDE (% remaining after tests) ([2]; No Surfactant): 0%
% degraded [3]: 54%
% degraded [4]: 54%

Clc1ccc(C(c2ccc(Cl)cc2)C(Cl)(Cl)Cl)cc1 [DDT, 1,1,1-trichloro-2,2-bis(p-chlorophenyl)ethane]
% DDT (% remaining after tests) [1, 5]: 80%
% Other (% remaining after tests) [1, 5]: 1%
% DDT (% remaining after tests) [1, 6]: 10%
% Other (% remaining after tests) [1, 6]: 30%
% DDT (% remaining after tests) [1, 7]: 60%
% Other (% remaining after tests) [1, 7]: 10%
% DDT (% remaining after tests) ([2]; "Dawn" 500 ppm): 10%
% Other (% remaining after tests) ([2]; "Dawn" 500 ppm): 15%
% DDT (% remaining after tests) ([2]; "Triton" X-100 500 ppm): 0%
% Other (% remaining after tests) ([2]; "Triton" X-100 500 ppm): 60%
% DDT (% remaining after tests) ([2]; No Surfactant): 85%
% Other (% remaining after tests) ([2]; No Surfactant): 0%
% degraded [3]: 72%
% degraded [4]: 53%
